# pIC50: −log10 of the molar value. Where a SMILES comes first, the peptide text is derived from it.
# Target: T1, Interleukin-23 receptor (Homo sapiens, UniProt Q5VWK5)
# T1 sequence (Q5VWK5 whole entry): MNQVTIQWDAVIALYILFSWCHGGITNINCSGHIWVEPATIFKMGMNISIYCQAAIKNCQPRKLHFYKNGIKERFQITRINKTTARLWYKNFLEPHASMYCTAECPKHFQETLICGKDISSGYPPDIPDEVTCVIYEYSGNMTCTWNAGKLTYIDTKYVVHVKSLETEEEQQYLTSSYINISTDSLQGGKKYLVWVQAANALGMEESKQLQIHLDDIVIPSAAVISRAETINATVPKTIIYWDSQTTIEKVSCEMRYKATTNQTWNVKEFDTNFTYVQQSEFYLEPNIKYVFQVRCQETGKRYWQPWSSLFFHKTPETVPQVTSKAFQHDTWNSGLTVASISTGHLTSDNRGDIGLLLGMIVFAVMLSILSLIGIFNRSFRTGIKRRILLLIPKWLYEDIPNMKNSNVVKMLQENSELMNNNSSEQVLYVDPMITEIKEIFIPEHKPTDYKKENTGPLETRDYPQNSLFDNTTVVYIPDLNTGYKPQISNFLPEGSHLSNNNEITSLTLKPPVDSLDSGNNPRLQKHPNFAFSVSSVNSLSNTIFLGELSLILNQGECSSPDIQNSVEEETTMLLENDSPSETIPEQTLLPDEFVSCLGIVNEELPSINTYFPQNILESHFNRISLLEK
# Test: Inhibition of interleukin-23 binding to human interleukin-23 receptor incubated for 2 hrs by competitive binding ELISA
row,SMILES,pIC50
1,CC(C)[C@H](NC(=O)[C@H](Cc1cnc[nH]1)NC(=O)[C@H](Cc1c[nH]c2ccccc12)NC(=O)[C@H](Cc1ccc(O)cc1)NC(=O)[C@H](CS)NC(=O)[C@@H](NC(=O)[C@H](Cc1c[nH]c2ccccc12)NC(=O)[C@@H](NC(=O)[C@H](CCCNC(=N)N)NC(=O)[C@@H](N)CS)[C@@H](C)O)C(C)C)C(=O)N[C@@H](Cc1ccccc1)C(=O)NCC(N)=O (H-CRTWVCYWHVFG-NH2),< 6.00
2,CC(=O)N[C@@H](CS)C(=O)N[C@@H](CCCNC(=N)N)C(=O)N[C@@H](CC(=O)O)C(=O)N[C@@H](Cc1c[nH]c2ccccc12)C(=O)N[C@@H](CCC(N)=O)C(=O)N[C@@H](CS)C(=O)N[C@@H](Cc1ccc(O)cc1)C(=O)N[C@@H](Cc1c[nH]c2ccccc12)C(=O)N[C@H](CCCNC(=N)N)C(=O)N[C@H](CCCCN)C(=O)N[C@@H](Cc1ccccc1)C(=O)NCC(=O)NCCOCCC(=O)N[C@H](CCCCN)C(N)=O,< 6.00
3,CC(C)[C@H](NC(=O)[C@H](Cc1c[nH]c2ccccc12)NC(=O)[C@H](CC(=O)O)NC(=O)[C@H](C)NC(=O)[C@@H](N)C(C)(C)S)C(=O)N[C@H](C(=O)N[C@@H](Cc1ccc(O)cc1)C(=O)N[C@@H](Cc1c[nH]c2ccccc12)C(=O)N[C@@H](Cc1cnc[nH]1)C(=O)N[C@H](C(=O)N[C@@H](Cc1ccccc1)C(=O)NCC(N)=O)[C@@H](C)O)C(C)(C)S,< 5.22
4,CC(=O)N[C@@H](CS)C(=O)N[C@@H](C)C(=O)N[C@@H](CC(=O)O)C(=O)N[C@@H](Cc1c[nH]c2ccccc12)C(=O)N[C@H](C(=O)N[C@@H](CS)C(=O)N[C@@H](Cc1ccc(O)cc1)C(=O)N[C@@H](Cc1cccc2ccccc12)C(=O)N(C)[C@@H](Cc1cnc[nH]1)C(=O)N[C@H](C)C(=O)N[C@@H](Cc1ccccc1)C(=O)NC(C)(C)C(N)=O)C(C)C,< 6.00
5,CCCCCCCCCCCCCCCC(=O)NCCCC[C@H](NC(=O)[C@H](CCCN)NC(=O)[C@H](Cc1c[nH]c2ccccc12)NC(=O)[C@H](Cc1ccc(O)cc1)NC(=O)[C@H](CS)NC(=O)[C@H](CCC(N)=O)NC(=O)[C@H](Cc1c[nH]c2ccccc12)NC(=O)[C@@H](NC(=O)[C@H](CCC(N)=O)NC(=O)[C@H](CS)NC(C)=O)[C@@H](C)O)C(=O)N[C@@H](CC(N)=O)C(=O)NCC(N)=O,< 5.22
6,C[C@H](N)C(=O)N[C@@H](CS)C(=O)N[C@@H](CC(=O)O)C(=O)N[C@@H](Cc1c[nH]c2ccccc12)C(=O)N[C@@H](CS)C(=O)N[C@@H](CS)C(=O)N[C@@H](Cc1ccc(O)cc1)C(=O)N[C@@H](Cc1c[nH]c2ccccc12)C(=O)N[C@@H](CS)C(=O)N[C@H](C(=O)N[C@@H](Cc1ccccc1)C(=O)NCC(N)=O)[C@@H](C)O (H-ACDWCCYWCTFG-NH2),< 6.00
7,CC(=O)N[C@@H](CS)C(=O)N[C@@H](CCC(N)=O)C(=O)N[C@H](C(=O)N[C@@H](Cc1c[nH]c2ccccc12)C(=O)N[C@@H](CCC(N)=O)C(=O)N[C@@H](CS)C(=O)N[C@@H](Cc1ccc(O)cc1)C(=O)N[C@H](CC(=O)N[C@@H](CCCNC(=N)N)C(=O)N[C@H](C(=O)N[C@@H](CC(N)=O)C(=O)NCC(=O)NCCOCC(=O)N[C@H](CCCCN)C(N)=O)C(C)C)Cc1cccc2ccccc12)[C@@H](C)O,< 4.52
8,CC(C)[C@H](NC(=O)[C@H](Cc1c[nH]c2ccccc12)NC(=O)[C@@H](NC(=O)[C@H](CCC(N)=O)NC(=O)[C@@H](N)CS)[C@@H](C)O)C(=O)N[C@@H](CS)C(=O)N[C@@H](Cc1ccc(O)cc1)C(=O)N[C@@H](Cc1c[nH]c2ccccc12)C(=O)N[C@@H](Cc1cnc[nH]1)C(=O)N[C@H](C(=O)N[C@@H](Cc1ccc(O)cc1)C(=O)NCC(N)=O)[C@@H](C)O (H-CQTWVCYWHTYG-NH2),< 6.00
9,CC(=O)N[C@H]1CCSC[C@@H](C(=O)N[C@@H](Cc2ccc(OCCN)cc2)C(=O)N[C@@H](Cc2ccc3ccccc3c2)C(=O)N[C@@](C)(CCCCN)C(=O)N[C@@H](CCC(=O)O)C(=O)N[C@@H](CC(N)=O)C(=O)NCC(N)=O)NC(=O)[C@H](CCC(N)=O)NC(=O)[C@H](c2ccc(Cl)c(Cl)c2)NC(=O)[C@H]([C@@H](C)O)NC(=O)[C@H](CCC(N)=O)NC1=O,< 5.52

# Results, then the compound that gave them:
row,pIC50,SMILES
1,> 6.30,CC(=O)N[C@@H](CS)C(=O)N[C@H](C(=O)N[C@H](C(=O)N[C@@H](Cc1c[nH]c2ccccc12)C(=O)N[C@H](C(=O)N[C@@H](CS)C(=O)N[C@@H](Cc1ccc(O)cc1)C(=O)N[C@@H](Cc1c[nH]c2ccccc12)C(=O)N[C@@H](Cc1cnc[nH]1)C(=O)N[C@@H](CCC(N)=O)C(=O)N[C@@H](Cc1ccc(O)cc1)C(=O)NCC(N)=O)[C@@H](C)O)[C@@H](C)O)[C@@H](C)O (Ac-CTTWTCYWHQYG-NH2)
2,6.00 to 7.00,CC(=O)N[C@H](C(=O)N[C@@H](CCC(N)=O)C(=O)N[C@H](C(=O)N[C@@H](Cc1c[nH]c2ccccc12)C(=O)N[C@@H](CCC(N)=O)C(=O)N[C@H](C(=O)N[C@@H](Cc1ccc(Cl)c(Cl)c1)C(=O)N[C@@H](Cc1ccc2ccccc2c1)C(=O)N[C@@](C)(CCCN)C(=O)N[C@@H](CCC(=O)O)C(=O)N[C@@H](CC(N)=O)C(=O)NCC(N)=O)C(C)(C)S)[C@@H](C)O)C(C)(C)S
3,6.00 to 7.00,CC(=O)N[C@@H](CS)C(=O)N[C@@H](C)C(=O)N[C@@H](CC(=O)O)C(=O)N[C@@H](Cc1c[nH]c2ccccc12)C(=O)N[C@H](C(=O)N[C@@H](CS)C(=O)N[C@@H](Cc1ccc(O)cc1)C(=O)N[C@@H](Cc1c[nH]c2ccccc12)C(=O)N[C@@H](Cc1cnc[nH]1)C(=O)N[C@H](C(=O)N[C@@H](Cc1ccccc1)C(=O)NCC(=O)N[C@@H](C)C(=O)N1CCC[C@H]1C(=O)N[C@H](CCCCN)C(=O)O)[C@@H](C)O)C(C)C
4,6.00 to 6.30,CSCC[C@H](NC(=O)[C@H](CS)NC(=O)[C@H](Cc1cnc[nH]1)NC(=O)[C@@H](NC(=O)[C@H](CO)NC(=O)CNC(C)=O)C(C)C)C(=O)N[C@H](C(=O)N[C@@H](Cc1c[nH]c2ccccc12)C(=O)N[C@@H](CCC(=O)O)C(=O)N[C@@H](CS)C(=O)N[C@@H](Cc1ccc(O)cc1)C(=O)N[C@@H](Cc1c[nH]c2ccccc12)C(=O)N[C@@H](Cc1cnc[nH]1)C(=O)N[C@H](C(=O)N[C@@H](Cc1ccccc1)C(=O)NCC(N)=O)[C@@H](C)O)[C@@H](C)O (Ac-GSVHCMTWECYWHTFG-NH2)
5,5.31,CCCCCCCCCCCCCCCC(=O)NCCCC[C@H](NC(=O)[C@H](Cc1c[nH]c2ccccc12)NC(=O)[C@H](Cc1ccc(O)cc1)NC(=O)[C@H](CS)NC(=O)[C@H](CCC(N)=O)NC(=O)[C@H](Cc1c[nH]c2ccccc12)NC(=O)[C@@H](NC(=O)[C@H](CCC(N)=O)NC(=O)[C@H](CS)NC(C)=O)[C@@H](C)O)C(=O)N[C@@H](CCC(=O)O)C(=O)N[C@@H](CC(N)=O)C(=O)NCC(N)=O
6,6.00 to 6.30,CC(=O)N[C@@H](CS)C(=O)N[C@@H](C)C(=O)N[C@@H](CC(=O)O)C(=O)N[C@@H](Cc1c[nH]c2ccccc12)C(=O)N[C@H](C(=O)N[C@@H](CS)C(=O)N[C@@H](Cc1ccc(O)cc1)C(=O)N[C@@H](Cc1c[nH]c2ccccc12)C(=O)N[C@@H](Cc1cnc[nH]1)C(=O)N[C@@H](CCC(=O)O)C(=O)N[C@@H](Cc1cnc[nH]1)C(=O)N[C@@H](CO)C(=O)N[C@@H](CCC(=O)O)C(=O)N[C@@H](CCCNC(=N)N)C(=O)N[C@H](C(=O)NCC(N)=O)C(C)C)C(C)C (Ac-CADWVCYWHEHSERVG-NH2)
7,> 6.30,CC(C)CC[C@H](NC(=O)[C@H](Cc1c[nH]c2ccccc12)NC(=O)[C@H](Cc1ccc(O)cc1)NC(=O)[C@H](CS)NC(=O)[C@H](CCC(N)=O)NC(=O)[C@H](Cc1c[nH]c2ccccc12)NC(=O)[C@@H](NC(=O)[C@H](CCC(N)=O)NC(=O)[C@@H](N)CS)[C@@H](C)O)C(=O)N[C@@H](CCC(=O)O)C(=O)N[C@@H](CC(N)=O)C(=O)NCC(=O)NCCOCC(=O)N[C@H](CCCCN)C(N)=O
8,5.22,CC(=O)N[C@@H](CS)C(=O)N[C@@H](CCC(N)=O)C(=O)N[C@H](C(=O)N[C@@H](Cc1c[nH]c2ccccc12)C(=O)N[C@@H](CCC(N)=O)C(=O)N[C@@H](CS)C(=O)N[C@@H](Cc1cnc[nH]1)C(=O)N[C@@H](Cc1c[nH]c2ccccc12)C(=O)N[C@@H](CCC(C)C)C(=O)N[C@@H](CCC(=O)O)C(=O)N[C@@H](CC(N)=O)C(=O)NCC(N)=O)[C@@H](C)O
9,> 6.30,CC(=O)N[C@@H](CS)C(=O)N[C@H](C(=O)N[C@H](C(=O)N[C@@H](Cc1c[nH]c2ccccc12)C(=O)N[C@@H](CCC(=O)O)C(=O)N[C@@H](CS)C(=O)N[C@@H](Cc1ccc(O)cc1)C(=O)N[C@@H](Cc1c[nH]c2ccccc12)C(=O)N[C@@H](Cc1cnc[nH]1)C(=O)N[C@@H](CCC(=O)O)C(=O)N[C@@H](Cc1ccccc1)C(=O)NCC(N)=O)[C@@H](C)O)[C@@H](C)O (Ac-CTTWECYWHEFG-NH2)
10,> 6.30,CC(C)[C@H](NC(=O)[C@H](Cc1c[nH]c2ccccc12)NC(=O)[C@H](CC(N)=O)NC(=O)[C@H](CO)NC(=O)[C@@H](N)CS)C(=O)N[C@@H](CS)C(=O)N[C@@H](Cc1ccc(O)cc1)C(=O)N[C@@H](Cc1c[nH]c2ccccc12)C(=O)N[C@@H](Cc1cnc[nH]1)C(=O)N[C@H](C(=O)N[C@@H](Cc1ccc(O)cc1)C(=O)NCC(N)=O)[C@@H](C)O (H-CSNWVCYWHTYG-NH2)

# — ChEMBL document CHEMBL4417631, “Oral peptide inhibitors of interleukin-23 receptor and their use to treat inflammatory bowel diseases” (2017)
